ChEMBL document CHEMBL4837181 (Eur J Med Chem, 2020)
Each block holds one molecule with its values, some of them ahead of it.

Columns and labels:
[1] = Cmax in female cynomolgus monkey at 15 mg/kg, iv measured on day 1; assay type: ADME, organism-based, Macaca fascicularis; design: route intravenous, dose 15 mg/kg; conditions: in vivo
[2] = Tmax in female cynomolgus monkey at 675 mg/kg, po measured on day 1; assay type: ADME, organism-based, Macaca fascicularis; conditions: in vivo
[3] = Change in AUC(infinity) in rat at 500 umol/kg, po measured upto 72 hrs by LC-MS/MS analysis; assay type: ADME, organism-based; conditions: in vivo, at 500 µmol/kg
[4] = Change in normalised Cmax in rat at 10 mg/kg, po measured upto 72 hrs by LC-MS/MS analysis; assay type: ADME, organism-based; conditions: in vivo
[5] = Half life in female cynomolgus monkey at 150 mg/kg, po measured on day 8; assay type: ADME, organism-based, Macaca fascicularis; conditions: in vivo
[6] = Cmax in female cynomolgus monkey at 375 mg/kg, po BID measured on day 8; assay type: ADME, organism-based, Macaca fascicularis; design: route oral, dose 375 mg/kg; conditions: in vivo
[7] = Tmax in male cynomolgus monkey at 225 mg/kg, po measured on day 1; assay type: ADME, organism-based, Macaca fascicularis; conditions: in vivo
[8] = Change in Cmax in rat at 185 umol/kg, po measured upto 72 hrs by LC-MS/MS analysis; assay type: ADME, organism-based; conditions: in vivo, at 185 µmol/kg
[9] = Half life in mouse at 1147 micromol/kg administered as single dose; assay type: ADME; conditions: in vivo, dose 1147 µmol/kg
[10] = AUC (0 to 24 hrs) in male cynomolgus monkey at 675 mg/kg, po measured on day 1; assay type: ADME, organism-based, Macaca fascicularis; design: time < 24 hr, route oral, dose 675 mg/kg; conditions: in vivo
[11] = AUC (0 to 24 hrs) in male cynomolgus monkey at 225 mg/kg, po measured on day 1; assay type: ADME, organism-based, Macaca fascicularis; design: time < 24 hr, route oral, dose 225 mg/kg; conditions: male, in vivo
[12] = AUC (0 to 24 hrs) in female cynomolgus monkey at 75 mg/kg, po measured on day 1; assay type: ADME, organism-based, Macaca fascicularis; design: time < 24 hr, route oral, dose 75 mg/kg; conditions: in vivo
[13] = Cmax in female cynomolgus monkey at 75 mg/kg, po BID measured on day 8; assay type: ADME, organism-based, Macaca fascicularis; design: route oral, dose 75 mg/kg; conditions: in vivo
[14] = AUC (0 to 12 hrs) in po BID dosed cynomolgus monkey administered for 28 days; assay type: ADME, organism-based, Macaca fascicularis; design: route oral, time 28 day; conditions: in vivo
[15] = Change in Cmax in rat at 500 umol/kg, po measured upto 72 hrs by LC-MS/MS analysis; assay type: ADME, organism-based; conditions: in vivo, at 500 µmol/kg
[16] = Drug accumulation in rat at 100 to 900 mg/kg, po BID; assay type: ADME, organism-based; conditions: in vivo, dose 100-900 mg/kg
[17] = Change in AUC(infinity) in cynomolgus monkey at 275 umol/kg, po measured after 0.083 to 48 hrs by LC-MS/MS analysis; assay type: ADME, organism-based, Macaca fascicularis; conditions: in vivo, at 275 µmol/kg, time 0.083-48 hrs
[18] = Cmax in male cynomolgus monkey at 225 mg/kg, po measured on day 1; assay type: ADME, organism-based, Macaca fascicularis; design: route oral, dose 225 mg/kg; conditions: in vivo
[19] = Half life in male cynomolgus monkey at 675 mg/kg, po measured on day 1; assay type: ADME, organism-based, Macaca fascicularis; conditions: in vivo
[20] = Dose normalized Cmax in rat at 10 mg/kg, po measured upto 72 hrs by LC-MS/MS analysis; assay type: ADME, organism-based; conditions: in vivo
[21] = Drug accumulation in monkey at 75 to 375 mg/kg, po BID; assay type: ADME, organism-based, Macaca mulatta; conditions: rhesus monkey, in vivo, dose 75-375 mg/kg
[22] = Change in AUC (infinity) in rat at 37 umol/kg, po measured upto 72 hrs by LC-MS/MS analysis; assay type: ADME, organism-based; conditions: in vivo, at 37 µmol/kg
[23] = Half life in mouse at 573 micromol/kg administered as single dose; assay type: ADME; conditions: in vivo, dose 573 µmol/kg
[24] = Half life in female cynomolgus monkey at 675 mg/kg, po measured on day 1; assay type: ADME, organism-based, Macaca fascicularis; conditions: in vivo
[25] = Change in Cmax in cynomolgus monkey at 275 umol/kg, po measured after 0.083 to 48 hrs by LC-MS/MS analysis; assay type: ADME, organism-based, Macaca fascicularis; conditions: in vivo, at 275 µmol/kg, time 0.083-48 hrs
[26] = Half life in male cynomolgus monkey at 150 mg/kg, po BID measured on day 8; assay type: ADME, organism-based, Macaca fascicularis; conditions: in vivo
[27] = AUC (0 to 24 hrs) in female cynomolgus monkey at 150 mg/kg, po BID measured on day 8; assay type: ADME, organism-based, Macaca fascicularis; design: time < 24 hr, route oral, dose 150 mg/kg; conditions: in vivo
[28] = Tmax in male cynomolgus monkey at 675 mg/kg, po measured on day 1; assay type: ADME, organism-based, Macaca fascicularis; conditions: in vivo
[29] = Tmax in female cynomolgus monkey at 375 mg/kg, po BID measured on day 8; assay type: ADME, organism-based, Macaca fascicularis; conditions: in vivo
[30] = Change in normalised AUCinfinity in rat at 10 mg/kg, po measured upto 72 hrs by LC-MS/MS analysis; assay type: ADME, organism-based; conditions: in vivo
[31] = Half life in mouse at 287 micromol/kg administered as single dose; assay type: ADME; conditions: in vivo, dose 287 µmol/kg
[32] = Change in Cmax in rat at 37 umol/kg, po measured upto 72 hrs by LC-MS/MS analysis; assay type: ADME, organism-based; conditions: in vivo, at 37 µmol/kg
[33] = Tmax in mouse at 287 micromol/kg administered as single dose; assay type: ADME; conditions: in vivo, dose 287 µmol/kg
[34] = Half life in mouse at 143 micromol/kg administered as single dose; assay type: ADME; conditions: in vivo, dose 143 µmol/kg
[35] = Cmax in female cynomolgus monkey at 675 mg/kg, po measured on day 1; assay type: ADME, organism-based, Macaca fascicularis; design: route oral, dose 675 mg/kg; conditions: in vivo
[36] = AUC (0 to 24 hrs) in female cynomolgus monkey at 675 mg/kg, po measured on day 1; assay type: ADME, organism-based, Macaca fascicularis; design: time < 24 hr, route oral, dose 675 mg/kg; conditions: in vivo
[37] = Cmax in male cynomolgus monkey at 675 mg/kg, po measured on day 1; assay type: ADME, organism-based, Macaca fascicularis; design: route oral, dose 675 mg/kg; conditions: in vivo
[38] = Change in AUC(infinity) in cynomolgus monkey at 92 umol/kg, po measured after 0.083 to 48 hrs by LC-MS/MS analysis; assay type: ADME, organism-based, Macaca fascicularis; conditions: in vivo, at 92 µmol/kg, time 0.083-48 hrs
[39] = Tmax in female cynomolgus monkey at 75 mg/kg, po measured on day 8; assay type: ADME, organism-based, Macaca fascicularis; conditions: in vivo
[40] = Cmax in male cynomolgus monkey at 75 mg/kg, po BID measured on day 8; assay type: ADME, organism-based, Macaca fascicularis; design: route oral, dose 75 mg/kg; conditions: in vivo
[41] = Change in Cmax in cynomolgus monkey at 825 umol/kg, po measured after 0.083 to 48 hrs by LC-MS/MS analysis; assay type: ADME, organism-based, Macaca fascicularis; conditions: in vivo, at 825 µmol/kg, time 0.083-48 hrs
[42] = Dose normalized AUC (0 to infinity) in rat at 10 mg/kg, po measured upto 72 hrs by LC-MS/MS analysis; assay type: ADME, organism-based; conditions: in vivo
[43] = Cmax in female cynomolgus monkey at 75 mg/kg, po measured on day 1; assay type: ADME, organism-based, Macaca fascicularis; design: route oral, dose 75 mg/kg; conditions: in vivo
[44] = AUC (0 to 24 hrs) in male cynomolgus monkey at 150 mg/kg, po BID measured on day 8; assay type: ADME, organism-based, Macaca fascicularis; design: time < 24 hr, route oral, dose 150 mg/kg; conditions: in vivo
[45] = Tmax in male cynomolgus monkey at 150 mg/kg, po BID measured on day 8; assay type: ADME, organism-based, Macaca fascicularis; conditions: in vivo
[46] = Change in AUC(infinity) in cynomolgus monkey at 825 umol/kg, po measured after 0.083 to 48 hrs by LC-MS/MS analysis; assay type: ADME, organism-based, Macaca fascicularis; conditions: in vivo, at 825 µmol/kg, time 0.083-48 hrs
[47] = Change in Cmax in cynomolgus monkey at 92 umol/kg, po measured after 0.083 to 48 hrs by LC-MS/MS analysis; assay type: ADME, organism-based, Macaca fascicularis; conditions: in vivo, at 92 µmol/kg, time 0.083-48 hrs
[48] = Cmax in male cynomolgus monkey at 150 mg/kg, po BID measured on day 8; assay type: ADME, organism-based, Macaca fascicularis; design: route oral, dose 150 mg/kg; conditions: in vivo
[49] = Tmax in male cynomolgus monkey at 75 mg/kg, po BID measured on day 8; assay type: ADME, organism-based, Macaca fascicularis; conditions: in vivo
[50] = Cmax in male cynomolgus monkey at 15 mg/kg, iv measured on day 1; assay type: ADME, organism-based, Macaca fascicularis; design: route intravenous, dose 15 mg/kg; conditions: in vivo
[51] = Cmax in female cynomolgus monkey at 150 mg/kg, po measured on day 8; assay type: ADME, organism-based, Macaca fascicularis; design: route oral, dose 150 mg/kg; conditions: in vivo

Compound: CCOC(=O)[C@@H](Cc1cn(C)c2ccccc12)NC(=O)[C@@H](N)CC(C)C.Cl
Cmax [1]: 0.135 µM | Tmax [2]: 1 h | Activity [3]: 15% | Activity [4]: 24% | half-life [5]: 3 h | Cmax [6]: 0.403 µM | Tmax [7]: 3 h | Activity [8]: 112% | half-life [9]: 3.2 h | AUC [10]: 0.966 µM·h | AUC(0-t) at 24 h [11]: 0.0602 µM·h | AUC(0-t) at 24 h [12]: 0.0287 µM·h | Cmax [13]: 0.00971 µM | AUC at 672 h [14]: 320 µM·h | Activity [15]: 5% | Drug metabolism [16]: Metabolite_Notdetected | Activity [17]: 518% | Cmax [18]: 0.0126 µM | half-life [19]: 9.7 h | Cmax/dose [20]: 16.2 µM | Drug metabolism [21]: Metabolite_Notdetected | Activity [22]: 70% | half-life [23]: 3.1 h | half-life [24]: 9.7 h | Activity [25]: 476% | half-life [26]: 8.5 h | AUC at 24 h [27]: 0.057 µM·h | Tmax [28]: 2 h | Tmax [29]: 2 h | Activity [30]: 75% | half-life [31]: 2.2 h | Activity [32]: 92% | Tmax [33]: 0.5 h | half-life [34]: 2.9 h | Cmax [35]: 0.0759 µM | AUC [36]: 0.966 µM·h | Cmax [37]: 0.148 µM | Activity [38]: 195% | Tmax [39]: 2 h | Cmax [40]: 0.00774 µM | Activity [41]: 230% | AUC/dose [42]: 888 µM·h | Cmax [43]: 0.00846 µM | AUC at 24 h [44]: 0.0806 µM·h | Tmax [45]: 2 h | Activity [46]: 416% | Activity [47]: 518% | Cmax [48]: 0.0171 µM | Tmax [49]: 1 h | Cmax [50]: 0.135 µM | Cmax [51]: 0.0105 µM

Cmax [1]: 43.1 µM | Tmax [2]: 2 h | Activity [3]: 0% | Activity [4]: 0% | half-life [5]: 2.7 h | Cmax [6]: 203 µM | Tmax [7]: 2 h | Activity [8]: 0% | half-life [9]: 3.4 h | AUC [10]: 4470 µM·h | AUC(0-t) at 24 h [11]: 525 µM·h | AUC(0-t) at 24 h [12]: 177 µM·h | Cmax [13]: 59.3 µM | AUC at 672 h [14]: 320 µM·h | Activity [15]: 0% | Drug metabolism [16]: Metabolite_Notdetected | Activity [17]: 0% | Cmax [18]: 97.7 µM | half-life [19]: 4.3 h | Cmax/dose [20]: 17.3 µM | Drug metabolism [21]: Metabolite_Notdetected | Activity [22]: 0% | half-life [23]: 3.1 h | half-life [24]: 10.2 h | Activity [25]: 0% | half-life [26]: 2.8 h | AUC at 24 h [27]: 403 µM·h | Tmax [28]: 4 h | Tmax [29]: 2.5 h | Activity [30]: 0% | half-life [31]: 2.8 h | Activity [32]: 0% | Tmax [33]: 0.6 h | half-life [34]: 3 h | Cmax [35]: 387 µM | AUC [36]: 6450 µM·h | Cmax [37]: 311 µM | Activity [38]: 0% | Tmax [39]: 1 h | Cmax [40]: 47.3 µM | Activity [41]: 0% | AUC/dose [42]: 508 µM·h | Cmax [43]: 55 µM | AUC at 24 h [44]: 509 µM·h | Tmax [45]: 2 h | Activity [46]: 0% | Activity [47]: 0% | Cmax [48]: 93.4 µM | Tmax [49]: 1 h | Cmax [50]: 39.5 µM | Cmax [51]: 79 µM
Compound: Cn1cc(C[C@@H](N)C(=O)O)c2ccccc21 [INDOXIMOD]
